# Experimental data published in patent US20120157451A1, “RAF INHIBITOR COMPOUNDS AND METHODS OF USE THEREOF” (GENENTECH, INC, priority 2009, published 2012).
# Tests used:
# [1] = test system: basal ERK1/2 phosphorylation in Malme-3M cells; test: Cellular ERK 1/2 phosphorylation assay; format: cell-based; conditions: Homo sapiens, 1 hour incubation, pERK normalized to total ERK, representative data of multiple tests
# Procedure: Inhibition of basal ERK1/2 phosphorylation was determined by the following in vitro […], which comprises incubating cells with a compound of Formula I for 1 hour and quantifying the fluorescent pERK signal on fixed cells and normalizing to total ERK signal.
# Materials and Methods: Malme-3M cells were obtained from ATCC and grown in RPMI-1640 supplemented with 10% fetal bovine serum. Cells were plated in 96-well plates at 24,000 cells/well and allowed to attach for 16-20 hours at 37° C., 5% CO2. The media was removed, and DMSO-diluted compounds were added in RPMI-1640 at a final concentration of 1% DMSO. The cells were incubated with the compounds for 1 hour at 37° C., 5% CO2. The cells were washed with PBS and fixed in 3.7% formaldehyde in PBS for 15 minutes. This was followed by washing in PBS/0.05% Tween20 and permeabilizing in −20° C. 100% MeOH for 15 minutes. Cells were washed in PBS/0.05% Tween20 then blocked in Odyssey blocking buffer (LI-COR Biosciences) for 1 hour. Antibodies to phosphorylated ERK (1:400, Cell Signaling #9106, monoclonal) and total ERK (1:400, Santa Cruz Biotechnology #sc-94, polyclonal) were added to the cells and incubated 16-20 hours at 4° C. After washing with PBS/0.05% Tween20, the cells were incubated with fluorescently-labeled secondary antibodies (1:1000 goat anti-rabbit IgG-IRDye800, Rockland and 1:500 goat anti-mouse IgG-Alexa Fluor 680, Molecular Probes) for an additional hour. Cells were then washed and analyzed for fluorescence at both wavelengths using the Odyssey Infrared Imaging System (LI-COR Biosciences). Phosphorylated ERK signal was normalized to total ERK signal.
# [2] = target: T1, V600E full-length B-Raf (Homo sapiens, UniProt P15056, V600E); test: B-Raf IC50 assay (incorporation of radiolabeled phosphate from [γ-33P]ATP into FSBA-modified wild-type MEK); format: biochemical
# T1 construct: made in house; host or cells: Sf9 insect cells (baculovirus)
# T1 sequence (P15056 whole entry V600E): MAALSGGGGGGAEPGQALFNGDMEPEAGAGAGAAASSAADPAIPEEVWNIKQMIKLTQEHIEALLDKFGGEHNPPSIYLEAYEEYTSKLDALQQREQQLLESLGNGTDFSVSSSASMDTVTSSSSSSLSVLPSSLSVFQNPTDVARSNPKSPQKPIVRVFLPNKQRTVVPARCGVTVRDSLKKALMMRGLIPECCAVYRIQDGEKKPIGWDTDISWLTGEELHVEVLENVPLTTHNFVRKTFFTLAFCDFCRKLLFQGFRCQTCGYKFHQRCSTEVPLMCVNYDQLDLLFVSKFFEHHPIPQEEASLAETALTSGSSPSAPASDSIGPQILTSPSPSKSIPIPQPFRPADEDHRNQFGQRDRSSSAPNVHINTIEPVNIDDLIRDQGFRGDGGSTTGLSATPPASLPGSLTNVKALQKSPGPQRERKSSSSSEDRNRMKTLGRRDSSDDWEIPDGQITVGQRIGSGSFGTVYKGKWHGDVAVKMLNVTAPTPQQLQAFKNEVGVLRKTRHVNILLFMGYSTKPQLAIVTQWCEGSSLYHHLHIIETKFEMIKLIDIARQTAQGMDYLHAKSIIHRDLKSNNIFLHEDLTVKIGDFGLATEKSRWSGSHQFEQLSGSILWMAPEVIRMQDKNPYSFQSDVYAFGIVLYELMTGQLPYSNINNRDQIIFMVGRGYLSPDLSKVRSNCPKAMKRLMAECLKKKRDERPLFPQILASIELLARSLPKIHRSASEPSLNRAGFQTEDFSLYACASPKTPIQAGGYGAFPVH
# Text: Determining the activity of Raf in the sample is possible by a number of direct and indirect detection methods (US 2004/0082014). Activity of human recombinant B-Raf protein may be assessed in vitro by assay of the incorporation of radio labeled phosphate to recombinant MAP kinase (MEK), a known physiologic substrate of B-Raf, according to US 2004/0127496 and WO 03/022840.
# Activity of human recombinant B-Raf protein may be assessed in vitro by assay of the incorporation of radio labeled phosphate to recombinant MAP kinase (MEK), a known physiologic substrate of B-Raf, according to US 2004/0127496 and WO 03/022840. Catalytically active human recombinant B-Raf protein is obtained by purification from sf9 insect cells infected with a human B-Raf recombinant baculovirus expression vector.
# Incubations were carried out at 22° C. in a Costar 3365 plate (Corning). Prior to the assay, the B-Raf and FSBA-MEK were preincubated together in assay buffer at 1.5× (20 μL of 30 nM and 1.5 μM, respectively) for 15 minutes, and the assay was initiated by the addition of 10 μL of 10 μM ATP. Following the 60-minute incubation, the assay mixtures were quenched by the addition of 100 μL of 25% TCA, the plate was mixed on a rotary shaker for 1 minute, and the product was captured on a Perkin-Elmer GF/B filter plate using a Tomtec Mach III Harvester. After sealing the bottom of the plate, […] of Bio-Safe II (Research Products International) scintillation cocktail were added to each well and the plate was top-sealed and counted in a Topcount NXT (Packard).
# [3] = 4 μM ATP, 60-minute incubation, representative data of multiple tests
"IC50 [2, 3]",IC50 ([2]; bound stated),Compound,IC50 [1]
0.26 µM,< 0.3 µM,"COc1cc2ncc(NC(=O)c3c(F)ccc(NS(=O)(=O)N4CCCC4)c3F)cn2n1 [Example 24, 2,6-difluoro-N-(2-methoxypyrazolo [1,5-a]pyrimidin-6-yl)-3-(pyrrolidine-1-sulfonamido) benzamide]",0.382 µM
0.00409 µM,< 0.15 µM,"CCCS(=O)(=O)Nc1ccc(F)c(C(=O)Nc2cnc3cc(-c4cccc(N5CCN(C)CC5)c4)nn3c2)c1F [Example 11, 2,6-difluoro-N-(2-(3-(4-methylpiperazin-1-yl)phenyl)pyrazolo[1,5-a]pyrimidin-6-yl)-3-(propylsulfonamido)benzamide]",0.00955 µM
0.0147 µM,< 0.15 µM,"CCCS(=O)(=O)Nc1ccc(F)c(C(=O)Nc2cnc3cc(-c4cccnc4)nn3c2)c1F [Example 10, 2,6-difluoro-3-(propylsulfonamido)-N-(2-(pyridin-3-yl)pyrazolo[1,5-a]pyrimidin-6-yl)benzamide]",0.0267 µM
0.0532 µM,< 0.15 µM,"CCCS(=O)(=O)Nc1ccc(F)c(C(=O)Nc2cnc3cc(OC)nn3c2)c1F [Example 1, 2,6-difluoro-N-(2-methoxypyrazolo[1,5-a]pyrimidin-6-yl)-3-(propylsulfonamido)benzamide]",0.0688 µM
0.367 µM,–,"CCCS(=O)(=O)Nc1ccc(F)c(C(=O)Nc2cnc3cc(N4CCCC4)nn3c2)c1F [Example 17, 2,6-difluoro-3-(propylsulfonamido)-N-(2-(pyrrolidin-1-yl)pyrazolo[1,5-a]pyrimidin-6-yl)benzamide]",0.664 µM
0.0461 µM,< 0.15 µM,"CCCS(=O)(=O)Nc1ccc(F)c(C(=O)Nc2cnc3cc(OCCOC)nn3c2)c1Cl [Example 34, 2-chloro-6-fluoro-N-(2-(2-methoxyethoxy)pyrazolo[1,5-a]pyrimidin-6-yl)-3-(propylsulfonamido) benzamide]",0.126 µM
0.00778 µM,< 0.15 µM,"COc1cc2ncc(NC(=O)c3c(Cl)ccc(NS(=O)(=O)CCCF)c3F)cn2n1 [Example 22, 6-chloro-2-fluoro-3-(3-fluoropropyl-sulfonamido)-N-(2-methoxypyrazolo [1,5-a]pyrimidin-6-yl)benzamide]",0.0428 µM
